In patent US4670469A, “Hydroxamic acid and pharmaceutical preparations containing the same” (VEB Arzneimittelwerk Dresden, priority 1983, dated 1987):

What was measured:
[1] = molecular target: T1, lipoxygenase from rabbit reticulocytes (Oryctolagus cuniculus, UniProt P12530); assay: Inhibition of the activity of lipoxygenase from rabbit reticulocytes (oxygen consumption, Clark electrode); format: biochemical; details: 25° C., pH 7.4, 0.53 mM linoleic acid, 15 min pre-incubation
T1 construct: The lipoxygenase from rabbit reticulocytes is obtained in electrophoretically and immunologically pure form; from tissue; host or cells: rabbit reticulocytes
T1 sequence (P12530 1-663): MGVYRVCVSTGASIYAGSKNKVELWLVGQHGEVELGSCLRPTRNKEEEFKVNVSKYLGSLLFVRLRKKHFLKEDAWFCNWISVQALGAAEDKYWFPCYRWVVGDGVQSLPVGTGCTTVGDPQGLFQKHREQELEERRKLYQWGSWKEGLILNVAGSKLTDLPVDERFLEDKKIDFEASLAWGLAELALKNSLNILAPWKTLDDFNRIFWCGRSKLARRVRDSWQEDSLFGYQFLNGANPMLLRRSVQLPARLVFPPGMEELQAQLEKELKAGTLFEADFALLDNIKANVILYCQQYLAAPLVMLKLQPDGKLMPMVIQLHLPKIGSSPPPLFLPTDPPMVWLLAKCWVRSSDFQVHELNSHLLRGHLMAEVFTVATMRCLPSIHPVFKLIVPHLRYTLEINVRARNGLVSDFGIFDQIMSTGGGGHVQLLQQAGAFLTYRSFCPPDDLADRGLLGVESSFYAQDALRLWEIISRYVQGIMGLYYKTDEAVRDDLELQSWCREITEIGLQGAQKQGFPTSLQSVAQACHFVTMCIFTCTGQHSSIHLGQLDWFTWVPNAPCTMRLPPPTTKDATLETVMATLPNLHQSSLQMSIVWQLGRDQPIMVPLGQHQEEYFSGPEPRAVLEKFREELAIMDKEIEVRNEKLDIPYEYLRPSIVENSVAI
Description: The lipoxygenase from rabbit reticulocytes was obtained in electrophoretically and immunologically pure form according to a technique known from the literature (S. M. Rapoport et al. Methods in Enzymology 71, 430 (1981)). The determination of lipoxygenase activity follows at 25° C. through the polarographic measurement of the oxygen consumption by means of Clark Electrode in a standardized system.
Through variation of the substance concentrations, the titration curves of the inhibition and therefrom the inhibition concentrations (I-value) of the compounds can be determined.
The testing of compounds for antiasthmatic, antiallergenic, inflammation-inhibiting and antithrombotic activity on the basis on the inhibition of the lipoxygenase reaction of the arachidonic acid cascade follows in a molecular/pharmacological test system. […] The lipoxygenase from rabbit reticulocytes is obtained in electrophoretically and immunologically pure form according to the techniques described in the literature (supra). The determination of the lipoxygenase activity follows at 25° C. through the polorographic measurement of oxygen consumption by means of a Clark-electrode in the following system: 0.1M potassiumphosphate, pH 7.4, with 0.2 percent sodium cholate and 0.53 mM linoleic acid. The enzyme concentration in the measurement preparation came to 25 nM. The compounds to be tested are dissolved in methylglycol (freshly distilled in a vacuum) and pre-incubated for 15 minutes at the measuring temperature in the absence of sodium cholate and linoleic acid. […] The enzyme reaction is started by the addition of sodium cholate and linoleic acid.

thrombocyte aggregation = assay: Arachidonic acid-induced thrombocyte aggregation in thrombocyte-rich plasma; format: cell-based, humans; details: Homo sapiens; 0.8 mM arachidonic acid; concentration giving total restraint of aggregation
Excerpt: Since with the new medicines the restraints of lipoxygenase has been identified as a molecular type of attack, also their influence on the thrombocyte-aggregation has been tested. The essential role of the lipoxygenase pathway for irreversibility of the thrombocyte aggregation is now known. (C. E. Dutilh et al. Prostaglandins and Medicine 6, 111 (1981)). The key role is attributed to the irreversibility of the thrombocyte aggregation in the pathogenesis of thrombotic illnesses. […] In the experiments, the thrombocyte aggregation was triggered either by means of arachidonic acid or by means of platelet activation factor (PAF-Acether).
The testing of the compounds for antithrombotic and thrombolytic activity follows in authentic cell systems of humans in vitro. Thrombocyte-rich plasma from the blood of healthy donors is obtained by centrifugation at 1,000×g. The measurement of the thrombocyte aggregation follows by means of an aggregometer based upon diffuse light scattering or light absorption of the produced cell aggregate. The thrombocyte-rich plasma is pre-incubated at 37° C. for 3 minutes with the active substance or substances; thereafter the thrombocyte aggregation is triggered through the addition of either 0.8 mM arachidonic acid or 1 μM platelet activation factor (PAF-acether). The preparations are then stirred with a velocity of 800 rpm. Indeed according to the employed active substance concentration there occurs either a strong delay or a complete inhibition of the thrombocyte aggregation.

[2] = molecular target: T2, lipoxygenase from soybeans (Glycine max, UniProt P08170); assay: Inhibition of lipoxygenase from soybeans; format: biochemical; details: 0.4 mM; read-out: inhibition of soybean lipoxygenase
T2 construct: host or cells: soybeans
T2 sequence (P08170 1-839): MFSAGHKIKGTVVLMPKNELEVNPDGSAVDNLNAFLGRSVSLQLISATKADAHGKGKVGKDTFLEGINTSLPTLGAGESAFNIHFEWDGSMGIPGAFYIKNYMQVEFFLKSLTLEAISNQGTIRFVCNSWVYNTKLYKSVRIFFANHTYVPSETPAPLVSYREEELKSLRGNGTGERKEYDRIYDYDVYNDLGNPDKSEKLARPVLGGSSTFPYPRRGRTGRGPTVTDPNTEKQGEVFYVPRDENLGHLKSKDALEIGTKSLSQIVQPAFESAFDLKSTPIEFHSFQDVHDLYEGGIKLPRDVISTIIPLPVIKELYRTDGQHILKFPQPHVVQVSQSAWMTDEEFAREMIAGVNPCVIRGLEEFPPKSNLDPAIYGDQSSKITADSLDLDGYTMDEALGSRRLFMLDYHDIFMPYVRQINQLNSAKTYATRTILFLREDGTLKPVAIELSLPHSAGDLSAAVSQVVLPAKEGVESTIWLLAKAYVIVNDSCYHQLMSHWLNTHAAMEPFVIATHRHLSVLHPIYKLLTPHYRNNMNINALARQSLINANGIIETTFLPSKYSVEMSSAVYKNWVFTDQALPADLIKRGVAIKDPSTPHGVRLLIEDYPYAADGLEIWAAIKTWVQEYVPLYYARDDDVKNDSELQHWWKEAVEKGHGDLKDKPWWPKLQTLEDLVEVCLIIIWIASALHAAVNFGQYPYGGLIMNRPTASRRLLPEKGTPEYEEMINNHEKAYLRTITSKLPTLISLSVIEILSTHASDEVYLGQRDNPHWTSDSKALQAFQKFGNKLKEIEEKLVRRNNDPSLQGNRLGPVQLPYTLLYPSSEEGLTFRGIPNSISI
Description: (§1) The inhibition of thrombocyte aggregation is likewise ascribed to the inhibition of lipoxygenase in the cells. It has thus been shown that the arachidonate-lipoxygenase activity of a microsome-free lysate of human thrombocyte concentrates is inhibited to the extent of 100% by means of 0.25 mM salicylhydroxamic acid. Moreover, it has been shown that also a series of further lipoxygenases are inhibited by means of the here described hydroxamic acids. The lipoxygenase from soybeans reacts the most insensitive, i.e. it is inhibited by means of 1 mM salicylhydroxamic acid at pH 7.4 to an extent of 60% and by means of 0.4 mM 2-hydroxy-1-napthylhydroxamic acid to an extent of 54%. In contrast, for the lipoxygenase from peas which come closer in their characteristics to human lipoxygenase, the following I50 -values are provided: salicyl hydroxamic acid, 5 μM, 2-hydroxy-1-napthylhydroxamic acid, 2 μM, 2(2'-napthoxy)-acethydroxamic acid, 2 μM. Moreover it has been shown that the formation lipoxygenase products of arachidonic acid in in vitro cultivated aorta endothelial cells of calves is hindered through 0.1 mM 2-hydroxy-1-napthylhydroxamic acids.

lipoxygenase from peas = assay: Inhibition of lipoxygenase from peas; format: biochemical; details: read-out: I50
Description: as §1

[3] = tested on: aorta endothelial cells of calves; assay: Formation of lipoxygenase products of arachidonic acid in cultivated aorta endothelial cells; format: cell-based; details: 0.1 mM
Description: as §1

Q: For `O=C(NO)c1c(O)ccc2ccccc12` [2-hydroxy-1-naphthylhydroxanic acid, 2-hydroxy-1-naphthylhydroxamic acid], which IC50 ([1]; read-out: I50) is on record?
A: The IC50 was 1600 nM.

Q: What about the IC84 ([1]; read-out: I84) of the same molecule?
A: The IC84 was 5.2 µM.

Q: What about the IC100 (thrombocyte aggregation) of the same molecule?
A: The IC100 was 7 µM.

Q: What about the inhibition at 400 µM [2] of the same molecule?
A: Its inhibition at 400 µM is 54%.

Q: And the IC50 (lipoxygenase from peas)?
A: Its IC50 is 2000 nM.

Q: What about the “formation of lipoxygenase products of arachidonic acid” value [3] of the same molecule?
A: Its value is “hindered”.
